Laboratory results published in patent US20100144712A1 (priority 2007, published 2010).
Converted amounts (≈) assume the structure as drawn. Where two headings read alike, the source gives them in different places.

Columns and labels:
Format in all cases: cell-based
[1] = tested on: Candida albican ATCC MYA-576; experiment: In vitro antifungal activity (MIC80), Candida albican ATCC MYA-576; conditions: Table 2, MYA 576; for MIC80: Candida, read-out: Minimal inhibitory concentration (MIC80)
How it was run: (§1)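 MIC80 is the lowest concentration that cuts growth by 80% compared with untreated cells, with alamarBlue as the growth read-out. Compounds were serially diluted in RPMI 1640 (0.25–256 […]; DMSO 2% v/v final) and added to 1.0×10^3–5.0×10^3 CFU/ml yeast suspensions, in duplicate runs.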

[2] = tested on: Candida albican ATCC 64124; experiment: In vitro antifungal activity (MIC80), Candida albican ATCC 64124; conditions: Table 2, 64124; for MIC80: Candida, ATCC64124, read-out: Minimal inhibitory concentration (MIC80)
How it was run: as §1

[3] = tested on: Aspergillus terreus ATCC 28301; experiment: In vitro antifungal activity (MIC80), Aspergillus terreus ATCC 28301; conditions: Table 3, ATCC 28301; for MIC80: Aspergillus terreus, ATCC28301, read-out: Minimal inhibitory concentration (MIC80)
Experimental: (§2) In vitro antifungal activities of the inventive antifungal compounds were evaluated using test strains including Candida albican (ATCC 90873, 204276, 62342, 64124, 64550, 96901, MYA-573, MYA-574, MYA-575, MYA-576, MYA-1003) and Aspergillus fumigatus (ATCC 16424). Test samples and positive control samples were prepared by dissolving the inventive compounds and comparative compounds, i.e., amphotericin B, fluconazole and itraconazole, in DMSO, respectively, and each successively diluted with medium to obtain test and positive control solutions having test compound concentrations of 0.125 μg/ml to a maximum concentration not generating turbidity. Minimal inhibitory concentration (MIC80) of each compound was determined as the lowest concentration of the test compounds required to reduce growth by 80% relative to a control strain not treated.
(§3) 3) Preparation of test samples: the inventive compounds and comparative compounds were each diluted with DMSO to obtain 1 to 2 ml of a test sample in a concentration of 100-folds of the determining maximum concentration (256 μg/ml).
(§4) The test samples were each successively diluted with RPMI 1640 to obtain test solutions having concentrations of […] in a 12×75 mm sterilized disposable culture tube. The final concentration of DMSO was adjusted to […] (v/v).
(§5) Candida albican strains were each subcultured in Sabourad Dextrose Agar, YM Agar or Potato Dextrose Agar medium at 35° C. for 2˜3 days. In the case of yeasts, a single colony was taken from prominent colonies and suspended in 0.85% sterile physiological saline solution and the turbidity of the suspension was adjusted to 80˜82% at 530 nm, and then diluted 50-fold with RPMI 1640 medium to 1.0×10^3˜5.0×10^3 CFU/ml. The turbidity of fungi was adjusted to 80˜82% and the suspension was diluted 50-fold to […]. Aspergillus fumigatus strains were subcultured in Malt Extract Agar for 7˜10 days, and a single colony was taken from prominent colonies and suspended in 0.85% sterile physiological saline solution and the suspension was adjusted to 0.108 at 530 nm, and then diluted 1000-fold with RPMI 1640 medium to 0.4×10^2˜5×10^4 CFU/ml. The turbidity of fungi was adjusted to 80˜82% and the suspension was diluted 50-fold to 0.4102˜0.5104 CFU/ml.
(§6) The strain solutions thus obtained were each seeded into a sterilized 96-well microplate, 0.1 ml of each test solution were added thereto, and […] of alamarblue was treated to each well (Biosource, #DAL1100). This procedure was repeated 2 times.
(§7) Minimal inhibitory concentration (MIC80) of each compound was determined as the lowest concentration of the test compounds required to reduce growth by 80% relative to a control strain not treated.
(§8) MIC80 of each of the compounds of which antifungal activities can be confirmed by Table 2 was determined using other test strains, i.e., Aspergillus fumigatus ATCC 16424 and MYA-1163, Aspergillus terreus ATCC 28301, Aspergillus flavus ATCC MYA-1004, and Aspergillus niger ATCC 9142.

[4] = tested on: Candida albican ATCC 90873; experiment: In vitro antifungal activity (MIC80), Candida albican ATCC 90873; conditions: Table 2, ATCC 90873; for MIC80: Candida, ATCC90873, read-out: Minimal inhibitory concentration (MIC80)
How it was run: as §1

[5] = tested on: Candida albican ATCC 62342; experiment: In vitro antifungal activity (MIC80), Candida albican ATCC 62342; conditions: Table 2, 62342; for MIC80: Candida, ATCC62342, read-out: Minimal inhibitory concentration (MIC80)
How it was run: as §1

[6] = tested on: Candida albican ATCC MYA-573; experiment: In vitro antifungal activity (MIC80), Candida albican ATCC MYA-573; conditions: Table 2, MYA 573; for MIC80: Candida, read-out: Minimal inhibitory concentration (MIC80)
How it was run: as §1

[7] = tested on: Candida albican ATCC MYA-574; experiment: In vitro antifungal activity (MIC80), Candida albican ATCC MYA-574; conditions: Table 2, MYA 574; for MIC80: Candida, read-out: Minimal inhibitory concentration (MIC80)
How it was run: as §1

[8] = tested on: Aspergillus niger ATCC 9142; experiment: In vitro antifungal activity (MIC80), Aspergillus niger ATCC 9142; conditions: Table 3, ATCC 9142; for MIC80: Aspergillus niger, ATCC9142, read-out: Minimal inhibitory concentration (MIC80)
Experimental: as §2, §3, §4, §5, §6, §7, §8

[9] = tested on: Candida albican ATCC 96901; experiment: In vitro antifungal activity (MIC80), Candida albican ATCC 96901; conditions: Table 2, ATCC 96901; for MIC80: Candida, ATCC96901, read-out: Minimal inhibitory concentration (MIC80)
How it was run: as §1

[10] = tested on: Candida albican ATCC MYA-1003; experiment: In vitro antifungal activity (MIC80), Candida albican ATCC MYA-1003; conditions: Table 2, MYA 1003; for MIC80: Candida, read-out: Minimal inhibitory concentration (MIC80)
How it was run: as §1

[11] = tested on: Candida albican ATCC 64550; experiment: In vitro antifungal activity (MIC80), Candida albican ATCC 64550; conditions: Table 2, 64550; for MIC80: Candida, ATCC64550, read-out: Minimal inhibitory concentration (MIC80)
How it was run: as §1

[12] = tested on: Candida albican ATCC MYA-575; experiment: In vitro antifungal activity (MIC80), Candida albican ATCC MYA-575; conditions: Table 2, MYA 575; for MIC80: Candida, read-out: Minimal inhibitory concentration (MIC80)
How it was run: as §1

[13] = tested on: Aspergillus fumigatus (ATCC 16424); experiment: In vitro antifungal activity (MIC80), Aspergillus fumigatus ATCC 16424; conditions: for MIC80: Aspergillus fumigatus, read-out: Minimal inhibitory concentration (MIC80)
How it was run: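 Broth dilution in RPMI 1640 with 2% (v/v) final DMSO; A. fumigatus inoculum from Malt Extract Agar subculture diluted 1000-fold to 0.4×10^2˜5×10^4 CFU/ml, alamarblue added, repeated 2 times. MIC80 is lowest concentration reducing growth 80% versus untreated control.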

[14] = tested on: Aspergillus flavus ATCC MYA-1004; experiment: In vitro antifungal activity (MIC80), Aspergillus flavus ATCC MYA-1004; conditions: Table 3, MYA-1004; for MIC80: Aspergillus flavus, read-out: Minimal inhibitory concentration (MIC80)
Experimental: as §2, §3, §4, §5, §6, §7, §8

[15] = tested on: Aspergillus fumigatus MYA-1163; experiment: In vitro antifungal activity (MIC80), Aspergillus fumigatus MYA-1163; conditions: Table 3, MYA-1163; for MIC80: Aspergillus fumigatus, MYA1163, read-out: Minimal inhibitory concentration (MIC80)
Experimental: as §2, §3, §4, §5, §6, §7, §8

Compound | MIC80 [1] [µg/mL] | MIC80 [2] [µg/mL] | MIC80 [3] [µg/mL] | MIC80 [4] [µg/mL] | MIC80 [5] [µg/mL] | MIC80 [6] [µg/mL] | MIC80 [7] [µg/mL] | MIC80 [8] [µg/mL] | MIC80 [9] [µg/mL] | MIC80 [10] [µg/mL] | MIC80 [11] [µg/mL] | MIC80 [12] [µg/mL] | MIC80 ([13]; ATCC16424, Table 2, ATCC 16424) [µg/mL] | MIC80 ([13]; ATCC16424, Table 3, ATCC 16424) [µg/mL] | MIC80 [14] [µg/mL] | MIC80 [15] [µg/mL] | also measured
C[C@@H](N1CCN(c2nc3ccc(NCCN4CCOCC4)cc3s2)CC1)[C@](O)(Cn1cncn1)c1ccc(F)cc1F [Example 12, (2R,3R)-3-(4-(6-(2-morpholinoethylamino)benzothiazol-2-yl)piperazin-1-yl)-2-(2,4-difluorophenyl)-1-(1H-1,2,4-triazol-1-yl)butan-2-ol] | 0.25 (≈ 0.418 µM) | 4 (≈ 6.68 µM) | 4 (≈ 6.68 µM) | 1 (≈ 1.67 µM) | 8 (≈ 13.4 µM) | 2 (≈ 3.34 µM) | 4 (≈ 6.68 µM) | 4 (≈ 6.68 µM) | 2 (≈ 3.34 µM) | 8 (≈ 13.4 µM) | 2 (≈ 3.34 µM) | 1 (≈ 1.67 µM) | 2 (≈ 3.34 µM) | 2 (≈ 3.34 µM) | 4 (≈ 6.68 µM) | 4 (≈ 6.68 µM) | 
C[C@@H]1[C@H](O)[C@@H](C)/C=C/C=C/C=C/C=C/C=C/C=C/C=C/[C@H](O[C@@H]2O[C@H](C)[C@@H](O)[C@H](N)[C@@H]2O)C[C@@H]2O[C@](O)(C[C@@H](O)C[C@@H](O)[C@H](O)CC[C@@H](O)C[C@@H](O)CC(=O)O[C@H]1C)C[C@H](O)[C@H]2C(=O)O [A, amphotericin B, reference compound] |  |  |  |  |  |  |  |  |  |  |  |  |  |  |  |  | Minimal inhibitory concentration (MIC80) [1]: 0.5 µg/mL (≈ 0.541 µM); Minimal inhibitory concentration (MIC80) [2]: 0.5 µg/mL (≈ 0.541 µM); Minimal inhibitory concentration (MIC80) [3]: 4 µg/mL (≈ 4.33 µM); Minimal inhibitory concentration (MIC80) [4]: 1 to 2 µg/mL; Minimal inhibitory concentration (MIC80) [5]: 0.5 µg/mL (≈ 0.541 µM); Minimal inhibitory concentration (MIC80) [6]: 0.5 µg/mL (≈ 0.541 µM); Minimal inhibitory concentration (MIC80) [7]: 0.25 µg/mL (≈ 0.271 µM); Minimal inhibitory concentration (MIC80) [8]: 0.5 µg/mL (≈ 0.541 µM); Minimal inhibitory concentration (MIC80) [9]: 0.25 µg/mL (≈ 0.271 µM); Minimal inhibitory concentration (MIC80) [10]: 0.5 µg/mL (≈ 0.541 µM); Minimal inhibitory concentration (MIC80) [11]: 0.5 µg/mL (≈ 0.541 µM); Minimal inhibitory concentration (MIC80) [12]: 0.5 µg/mL (≈ 0.541 µM); Minimal inhibitory concentration (MIC80) ([13]; Table 2, ATCC 16424): 1 to 2 µg/mL; Minimal inhibitory concentration (MIC80) ([13]; Table 3, ATCC 16424): 0.5 µg/mL (≈ 0.541 µM); Minimal inhibitory concentration (MIC80) [14]: 4 µg/mL (≈ 4.33 µM); Minimal inhibitory concentration (MIC80) [15]: 2 µg/mL (≈ 2.16 µM)
C[C@@H](N1CCCN(c2ccccn2)CC1)[C@](O)(Cn1cncn1)c1ccc(F)cc1F [Example 38, (2R,3R)-2-(2,4-difluorophenyl)-3-(4-(pyridin-2-yl)-1,4-diazepan-1-yl)-1-(1H-1,2,4-triazol-1-yl)butan-2-ol] | 0.125 (≈ 0.292 µM) | 16 (≈ 37.3 µM) | 1 (≈ 2.33 µM) | 0.125 (≈ 0.292 µM) | 0.25 (≈ 0.583 µM) | 1 (≈ 2.33 µM) | 2 (≈ 4.67 µM) | 1 (≈ 2.33 µM) | 32 (≈ 74.7 µM) | 64 (≈ 149 µM) | 2 (≈ 4.67 µM) | 0.125 (≈ 0.292 µM) | 0.125 (≈ 0.292 µM) | 0.125 (≈ 0.292 µM) | 0.5 (≈ 1.17 µM) | 0.5 (≈ 1.17 µM) | 
